pIC50: −log10 of the molar value.
Molecular target: BTK (Homo sapiens (Human), UniProt Q06187)
Test: Z'-LYTE kinase inhibition assay against BTK
Type: biochemical
Details: for pIC50: series of concentrations, GraphPad Prism 5; for inhibition at 0.1 µM: compound at 100 nM, ATP concentration at Km
Protocol: Inhibitory activities of compounds against BTK, EGFR T790M, EGFR L858R, and EGFR L858R/T790M were measured using Z′-LYTE® Method from Life Technologies as briefly described in the following.
Test Compounds are screened in 1% DMSO (final) in the well. For 10 point titrations, 3-fold serial dilutions are conducted from the starting concentration. All ATP Solutions are diluted to a 4× working concentration in Kinase Buffer (50 mM HEPES pH 7.5, 0.01% BRIJ-35, 10 mM MgCl2, 1 mM EGTA). Peptide/Kinase Mixtures are diluted to a 2× working concentration in the appropriate Kinase Buffers as described below. • (i) Peptide/Kinase Mixtures for measurement of EGFR (ErbB1) L858R: • The 2×EGFR (ErbB1) L858R/Tyr 04 mixture is prepared in 50 mM HEPES pH 7.5, 0.01% BRIJ-35, 10 mM MgCl2, 4 mM MnCl2. 1 mM EGTA, 2 mM DTT. The final 10 μL Kinase Reaction consists of 0.2-1.68 ng EGFR (ErbB1) L858R and 2 μM Tyr 04 in 50 mM HEPES pH 7.5, 0.01% BRIJ-35, 10 mM MgCl2, 2 mM MnCl2, 1 mM EGTA, 1 mM DTT. After the 1 hour Kinase Reaction incubation, 5 μL of a 1:64 dilution of Development Reagent B is added. • (ii) Peptide/Kinase Mixtures for measurement of EGFR (ErbB1) T790M: The 2×EGFR (ErbB1) T790M/Tyr 04 mixture is prepared in 50 mM HEPES pH 6.5, 0.01% BRIJ-35, 10 mM MgCl2, 1 mM EGTA, 0.02% NaN3. The final 10 μL Kinase Reaction consists of 3.9-30.2 ng EGFR (ErbB1) T790M and 2 μM Tyr 04 in 50 mM HEPES pH 7.0, 0.01% BRIJ-35, 10 mM MgCl2, 1 mM EGTA, 0.01% NaN3. After the 1 hour Kinase Reaction incubation, 5 μL of a 1:64 dilution of Development Reagent B is added. • (iii) Peptide/Kinase Mixtures for measurement of EGFR (ErbB1) L858R/T790M: The 2×EGFR (ErbB1) T790M L858R/Tyr 04 mixture is prepared in 50 mM HEPES pH 6.5, 0.01% BRIJ-35, 10 mM MgCl2, 1 mM EGTA, 0.02% NaN3. The final 10 μL Kinase Reaction consists of 0.38-4.22 ng EGFR (ErbB1) T790M L858R and 2 μM Tyr 04 in 50 mM HEPES pH 7.0, 0.01% BRIJ-35, 10 mM MgCl2, 1 mM EGTA, 0.01% NaN3. After the 1 hour Kinase Reaction incubation, 5 μL of a 1:64 dilution of Development Reagent B is added. • (iv) Peptide/Kinase Mixtures for measurement of BTK: The 2×BTK/Tyr 01 mixture is prepared in 50 mM HEPES pH 7.5, 0.010/BRIJ-35, 10 mM MgCl2, 1 mM EGTA. The final 10 μL Kinase Reaction consists of 1.04-10.4 ng BTK and 2 μM Tyr 01 in 50 mM HEPES pH 7.5, 0.01% BRIJ-35, 10 mM MgCl2, 1 mM EGTA. After the 1 hour Kinase Reaction incubation, 5 μL of a 1:256 dilution of Development Reagent B is added.
Reaction starts by 30-second shaking of mixture consisting of 2.5 μL 4× test compound, 5 μL 2× kinase reaction mixture and 2.5 μL 4×ATP Solution on Bar-coded Corning, low volume NBS, black 384-well plate (Corning Cat. #3676). Then the mixture is incubated for 60-minute at room temperature for the kinase reaction, followed by addition of 5 μL of a 1:1024 dilution of development reagent A and 30-second plate shake. The mixture is then incubated for another 60-minute at room temperature for development reaction. Finally fluorescence is read by plate reader.
The Z′-LYTE assay was carried out with ATP concentration at Km. The scale utilized in Tables 2-6 is as follows: ++ more than 50% inhibition and + less than 50% inhibition.
To determine IC50 of a compound against a kinase, a series of concentrations of the compound were tested for the inhibition. IC50 was calculated by plotting the concentration of compound vs the percentage of inhibition in treated wells using GraphPad Prism 5. […] The scale utilized in Table 7 is as follows: ++ less than 100 nM and + greater than 100 nM.

Sequence of BTK (Q06187 whole entry): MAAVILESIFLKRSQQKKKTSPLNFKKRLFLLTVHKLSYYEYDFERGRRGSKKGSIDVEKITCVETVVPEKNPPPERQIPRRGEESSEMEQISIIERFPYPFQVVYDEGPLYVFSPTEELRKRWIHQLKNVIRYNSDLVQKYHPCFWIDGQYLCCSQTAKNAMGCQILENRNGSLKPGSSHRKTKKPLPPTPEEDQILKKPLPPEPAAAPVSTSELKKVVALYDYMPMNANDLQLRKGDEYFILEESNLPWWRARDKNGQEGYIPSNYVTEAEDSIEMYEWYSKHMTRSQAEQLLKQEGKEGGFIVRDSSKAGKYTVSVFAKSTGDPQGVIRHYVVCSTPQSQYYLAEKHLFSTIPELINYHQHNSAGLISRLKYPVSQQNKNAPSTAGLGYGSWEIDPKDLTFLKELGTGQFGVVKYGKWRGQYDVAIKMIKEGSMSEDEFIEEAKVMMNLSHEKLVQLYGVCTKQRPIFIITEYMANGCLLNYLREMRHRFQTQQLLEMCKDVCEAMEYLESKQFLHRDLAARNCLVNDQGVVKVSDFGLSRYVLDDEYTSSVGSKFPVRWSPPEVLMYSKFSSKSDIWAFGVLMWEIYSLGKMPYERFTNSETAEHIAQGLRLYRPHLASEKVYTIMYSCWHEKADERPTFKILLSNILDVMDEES

Compound	pIC50	inhibition at 0.1 µM [%]
C=CC(=O)Nc1cccc(-c2cc(-c3ccc(C(=O)Nc4ccccn4)cc3)n3cnccc23)c1 [C044, 4-(5-(3-acrylamidophenyl)pyrrolo[1,2-c]pyrimidin-7-yl)-N-(pyridin-2-yl)benzamide]	–	< 50
C=CC(=O)Nc1cccc(-c2cc(-c3ccc(C(=O)Nc4cc(C(N)=O)ccn4)cc3Cl)cc3cncnc23)c1 [C134, 2-(4-(8-(3-acrylamidophenyl)quinazolin-6-yl)-3-chlorobenzamido)isonicotinamide]	–	> 50
C=CC(=O)N1CCCC(c2cc(-c3cccc(Nc4cccc(C(F)(F)F)c4)c3)cc3cncnc23)C1 (centres unmarked) [C029, 1-(3-(6-(3-((3-(trifluoromethyl)phenyl)amino)phenyl)quinazolin-8-yl)piperidin-1-yl)prop-2-en-1-one]	–	< 50
C=CC(=O)Nc1cccc(-c2cc(-c3ccc(C(=O)Nc4cc(C(F)(F)F)ccn4)c(OC)c3)cc3cncnc23)c1 [C145, 4-(8-(3-acrylamidophenyl)quinazolin-6-yl)-2-methoxy-N-(4-(trifluoromethyl)pyridin-2-yl)benzamide]	–	< 50
C=CC(=O)Nc1cccc(-c2cc(-c3ccc(C(=O)Nc4ccccn4)cc3Cl)c(N)c3cncnc23)c1 [C190, 4-(8-(3-acrylamidophenyl)-5-aminoquinazolin-6-yl)-3-chloro-N-(pyridin-2-yl)benzamide]	> 7.00	> 50
C=CC(=O)Nc1cccc(-c2cc(-c3ccc(C(=O)Nc4cc(C#N)ccn4)cc3)c(N)c3cncnc23)c1 [C176, 4-(8-(3-acrylamidophenyl)-5-aminoquinazolin-6-yl)-N-(4-cyanopyridin-2-yl)benzamide]	–	< 50
C=CC(=O)Nc1cccc(-c2cc(-c3ccc(Oc4ccccn4)cc3F)cc3cnc(N)nc23)c1 [C157, N-(3-(2-amino-6-(2-fluoro-4-(pyridin-2-yloxy)phenyl)quinazolin-8-yl)phenyl)acrylamide]	> 7.00	> 50
C=CC(=O)N1CCC(c2cc(-c3ccc(C(=O)Nc4cc(C5CC5)ccn4)cc3)n3cnccc23)C1 (centres unmarked) [C164, 4-(5-(1-acryloylpyrrolidin-3-yl)pyrrolo[1,2-c]pyrimidin-7-yl)-N-(4-cyclopropylpyridin-2-yl)benzamide]	–	> 50
C=CC(=O)Nc1cccc(-c2cc(-c3ccc(Oc4cc(C(N)=O)ccn4)cc3)cc3cncnc23)c1 [C191, 2-(4-(8-(3-acrylamidophenyl)quinazolin-6-yl)phenoxy)isonicotinamide]	> 7.00	> 50
C=CC(=O)N1CCC(c2cc(-c3ccc(C(=O)Nc4cc(C5CC5)ccn4)cc3)cc3cncnc23)C1 (centres unmarked) [C123, 4-(8-(1-acryloylpyrrolidin-3-yl)quinazolin-6-yl)-N-(4-cyclopropylpyridin-2-yl)benzamide]	–	> 50
C=CC(=O)Nc1cccc(-c2cc(-c3ccc(C(=O)Nc4cc(C5CC5)ccn4)cc3F)cc3cncnc23)c1 [C153, 4-(8-(3-acrylamidophenyl)quinazolin-6-yl)-N-(4-cyclopropylpyridin-2-yl)-3-fluorobenzamide]	> 7.00	> 50
C=CC(=O)N1CCC(c2cc(-c3ccc(C(=O)Nc4ccncc4)cc3)cc3cncnc23)C1 (centres unmarked) [C155, 4-(8-(1-acryloylpyrrolidin-3-yl)quinazolin-6-yl)-N-(pyridin-4-yl)benzamide]	–	< 50
C=CC(=O)Nc1cccc(-c2ccc(-c3ccc(C(=O)Nc4ccccn4)cc3)c3cncnc23)c1 [C039, 4-(8-(3-acrylamidophenyl)quinazolin-5-yl)-N-(pyridin-2-yl)benzamide]	–	< 50
C=CC(=O)N1CCC(c2cc(-c3ccc(C(=O)Nc4cc(C(N)=O)ccn4)cc3)cc3cncnc23)C1 (centres unmarked) [C128, 2-(4-(8-(1-acryloylpyrrolidin-3-yl)quinazolin-6-yl)benzamido)isonicotinamide]	–	< 50
C=CC(=O)Nc1cccc(-c2cc(-c3ccc(Oc4cc(C(F)(F)F)ccn4)cc3)cc3cncnc23)c1 [C175, N-(3-(6-(4-((4-(trifluoromethyl)pyridin-2-yl)oxy)phenyl)quinazolin-8-yl)phenyl)acrylamide]	> 7.00	> 50
C=CC(=O)Nc1cccc(-c2cc(-c3ccc(Oc4cc(C5CC5)ccn4)cc3F)cc3cncnc23)c1 [C198, N-(3-(6-(4-((4-cyclopropylpyridin-2-yl)oxy)-2-fluorophenyl)quinazolin-8-yl)phenyl)acrylamide]	> 7.00	> 50

Second part, the molecule after the results:

pIC50	inhibition at 0.1 µM [%]	Compound
> 7.00	–	C=CC(=O)N1CCC(c2nc(-c3ccc(Oc4ncccc4F)c(OC)c3)n3c(N)nccc23)C1 (centres unmarked) [C233, 1-(3-(5-amino-3-(4-((3-fluoropyridin-2-yl)oxy)-3-methoxyphenyl)imidazo[1,5-c]pyrimidin-1-yl)pyrrolidin-1-yl)prop-2-en-1-one]
–	< 50	C=CC(=O)N1CCC(c2cc(-c3ccc(Oc4ccccn4)cc3OC)cc3cncnc23)C1 (centres unmarked) [C133, 1-(3-(6-(2-methoxy-4-(pyridin-2-yloxy)phenyl)quinazolin-8-yl)pyrrolidin-1-yl)prop-2-en-1-one]
–	< 50	C=CC(=O)N1CCC(c2cc(-c3ccc(Oc4ccccn4)cc3F)n3cnccc23)C1 (centres unmarked) [C159, 1-(3-(7-(2-fluoro-4-(pyridin-2-yloxy)phenyl)pyrrolo[1,2-c]pyrimidin-5-yl)pyrrolidin-1-yl)prop-2-en-1-one]
> 7.00	–	CC#CC(=O)N1CCC(c2nc(-c3ccc(C(=O)Nc4cc(C5CC5)ccn4)cc3)n3c(N)ncnc23)C1 (centres unmarked) [C237, 4-(4-amino-8-(1-(but-2-ynoyl)pyrrolidin-3-yl)imidazo[1,5-a][1,3,5]triazin-6-yl)-N-(4-cyclopropylpyridin-2-yl)benzamide]
> 7.00	> 50	C=CC(=O)N1CCC(c2nc(-c3ccc(Oc4ccccn4)cc3)n3c(N)nccc23)C1 (racemic) [C224, (R/S)-1-(3-(5-amino-3-(4-(pyridin-2-yloxy)phenyl)imidazo[1,5-c]pyrimidin-1-yl)pyrrolidin-1-yl)prop-2-en-1-one]
–	< 50	C=CC(=O)N1CCC(c2ccc(-c3ccc(C(=O)Nc4ccccn4)cc3)c3c(N)ncnc23)C1 (centres unmarked) [C056, 4-(8-(1-acryloylpyrrolidin-3-yl)-4-amino-quinazolin-5-yl)-(N-pyridin-2-yl)benzamide]
–	< 50	C=CC(=O)N1CCC(c2cc(-c3ccc(C(=O)Nc4cc(OC)ccn4)cc3)n3cnccc23)C1 (centres unmarked) [C162, 4-(5-(1-acryloylpyrrolidin-3-yl)pyrrolo[1,2-c]pyrimidin-7-yl)-N-(4-methoxypyridin-2-yl)benzamide]
> 7.00	> 50	C=CC(=O)N1CCC(c2nc(-c3ccc(Oc4ccccn4)c(OC)c3)n3c(N)nccc23)C1 (centres unmarked) [C212, 1-(3-(5-amino-3-(3-methoxy-4-(pyridin-2-yloxy)phenyl)imidazo[1,5-c]pyrimidin-1-yl)pyrrolidin-1-yl)prop-2-en-1-one]
